According to patent US20100062078A1, “PHARMACEUTICAL COMPOSITION FOR TREATING CANCER AND THE SIGNALING PATHWAY THEREOF” (priority 2008, published 2010):

How the values were obtained:
MDAH-2774 = assay: XTT cell proliferation assay (cytotoxicity); format: cell-based, human; conditions: Homo sapiens
Description: Cells were seeded at 7×10^3 per well in 96-well culture plates before treatment with different concentrations of protoapigenone for 12, 24 and/or 48 hours. Next, the cytotoxicity of protoapigenone was determined using XTT cell proliferation assay (Sigma, St. Louis, Mo.). The absorbance of wavelength at 490 nm (OD490) and 650 nm (OD650) were determined respectively by enzyme-linked immunosorbent assay (ELISA) reader, and 50% of inhibitory concentration (IC50) was calculated by the value of OD490-OD650. In addition, in order to evaluate the long-term effect, the cells were treated with different concentration of protoapigenone for 3 hours, then were incubated with fresh medium for 14 days so as to form colonies. Finally, the cells were stained with crystal violet and were observed under the microscope.

SKOV3 cells = assay: Cell survival assay (trypan blue) at cell cycle phases; format: cell-based, human; conditions: 4 hours
Description: SKOV3 cells at various cell cycle phases were incubated in the 6-cm Petri dishes and treated with protoapigenone at different dosages ([…]). Subsequently, the cells were harvested and mixed with trypan blue at a ratio of 1:1. The stained apoptotic cells were observed under the microscope.

LNCap cells [1] = assay: Annexin V apoptosis assay; format: cell-based, human; conditions: 10 μM, 3 hours
Description: (§1) The theory of this assay is to detect early apoptotic cells during the apoptotic progression. The ovarian cancer cells and the prostate cancer cells respectively were incubated with protoapigenone at 10 μM for 3 hours on chamber slides, washed with cold PBS twice and stained with a binding buffer containing annexin V-fluorescein isothiocyanate (FITC) (1 mg/ml; Strong Biotech, Taipei, Taiwan) and 4,6-diamidino-2-phenylinodole (Sigma-Aldrich) at 25° C. for 15 minutes. The stained cells were washed with PBS twice and observed under the fluorescent microscope.

SKOV3 = assay: Annexin V apoptosis assay; format: cell-based, human; conditions: SKOV3, 10 μM, 3 hours
Description: as §1

[2] = system: MDAH-2774 human ovarian cancer cells; assay: Nude mice xenograft model, tumor growth; format: in vivo; conditions: low dose (0.069 μM/g) and high dose (0.69 μM/g) i.p. every other day, 7-week treatment
Description: (§2) MDAH-2774 human ovarian cancer cells of 2×10^6 (or LNCap prostate cancer cells of 1×10^6) in 0.1 ml PBS were injected subcutaneously at the right flank of 6-week-old female nude mice (Foxnlun/Foxulun). When tumors became visible (approximately 3×3 mm in size), the mice were randomly grouped and treated intraperitoneally with protoapigenone or vehicle every other day. […] Tumor size and body weight were measured twice a week using calipers, and their tumor volumes were calculated according to a standard formula: width^2×length/2. After treatment with protoapigenone for 5 weeks, the mice xenografted with LNCap cells were sacrificed by deep anesthesia, and the blood sampling by cardiac aspiration was done immediately after anesthesia. Complete blood count of the nude mice blood was determined by Sysmex XE-2100 (TOA Medical Electronics, Kobe, Japan), and the plasma blood urea nitrogen (BUN), creatine (Cr), asparatate aminotransferase (AST), and alanine aminotransferase (ALT) levels were determined by Beckman LX20 (Beckman-Coulter, U.S.A.)

[3] = Body weight, complete blood count and biochemical profile of MDAH-2774-xenografted nude mice; format: in vivo; conditions: for Creatine / Got (glutamic-oxaloacetic transaminase) / Gpt (glutamic-pyruvic transaminase) / HCT (hematocrit) / MCV (mean corpuscular volume) / PLT / RBC / WBC / Body weight: MDAH-2774 xenograft
[4] = Body weight, complete blood count and biochemical profile of LNCap-xenografted nude mice; format: in vivo; conditions: for BUN / Creatine / Got (glutamic-oxaloacetic transaminase) / Gpt (glutamic-pyruvic transaminase) / MCV (mean corpuscular volume) / RBC / WBC / Body weight: LNCap xenograft
Description: as §2

LNCap cells [5] = assay: Cell cycle analysis (PI flow cytometry); format: cell-based, human; conditions: 6 hours and 12 hours
Description: The ovarian cancer cells and the prostate cancer cells respectively were treated with protoapigenone at different concentrations (0, 2.5, 5 and 10 μM) for 24 hours and 6 hours (or 12 hours). These cells were harvested by trypsin and fixed with 70% ethanol for 1 hour, washed with phosphate buffered saline (PBS) twice, and resuspended in propidium iodide (PI)/RNase A solution for 30 minutes. In accordance with the mechanism of DNA stained with propidium iodide, the cell cycle and sub-G1 distribution were detected by the FACScan flow cytometry (Becton Dickinson, San Jose, Calif.), and data analysis was done with CellQuest software (BD Bioscience).

LNCap = assay: TUNEL assay; format: cell-based, human; conditions: LNCap, 2.5, 5 and 10 μM, 12 or 24 hours
Description: TUNEL assay is performed to detect whether cellular DNA is fragmented. The prostate cancer cells were treated with protoapigenone at various concentrations (2.5, 5 and 10 μM) for 12 or 24 hours, then were stained with TUNEL using the DeadEnd Colorimetric TUNEL system (Promega, Madison, Wis.). In brief, the prostate cancer cells were fixed with 4% paraformaldehyde for 30 minutes after protoapigenone treatment. Next, the fixed cells were incubated with digoxigenin-conjugated dUTP and nucleotide mixture in a recombinant terminal deoxynucleotide transferase-catalyzed reaction in the humidified atmosphere at 37° C. Subsequently, they were immersed in the stop buffer for 15 minutes at 37° C. The Cells were washed with PBS, then were incubated in DAB solutions for 15 minutes in dark. The stained cells were observed under the microscope. The percentage of TUNEL-positive cells were counted in 1000 cells, and the apoptosis index in the later period was calculated.

## O=C1C=CC(O)(c2cc(=O)c3c(O)cc(O)cc3o2)C=C1 [protoapigenone]
MDAH-2774; MDAH-2774, 1 μM protoapigenone, read-out: inhibition of cell growth
  inhibition at 1 µM: 25%
MDAH-2774; MDAH-2774, 2.5 μM protoapigenone, read-out: inhibition of cell growth
  inhibition at 2.5 µM: 53.4%
MDAH-2774; ovarian cancer cell line MDAH-2774, means ± SD of three independent experiments
  IC50: 690 ± 920 nM
SKOV3 cells; 5 μM
  decrease in number of SKOV3 cells proliferated at G2 phase: 20.3%
  decrease in number of SKOV3 cells proliferated at M phase: 44.8%
  decrease in number of SKOV3 cells proliferated at S phase: 23.5%
SKOV3 cells; 10 μM
  decrease in number of SKOV3 cells proliferated at G2 phase: 34.7%
  decrease in number of SKOV3 cells proliferated at M phase: 70.5%
  decrease in number of SKOV3 cells proliferated at S phase: 45.4%
LNCap cells [1]
  ratio of annexin V-FITC positive cells: 24.2±1.3%
SKOV3
  cell apoptosis (annexin V-FITC): 34.2%
[2]
  tumor growth of MDAH-2774 cells vs PBS control: significantly suppressed
[3]; MDAH-2774-xenografted nude mice, intraperitoneal injection, 7 weeks
  impairment of hematopoiesis, liver function, or renal function: no significant impairment
[3]; high dose, 7 weeks
  Creatine: 0.5 ± 0.0 mg/dL
  Got (glutamic-oxaloacetic transaminase): 148.2 ± 59.3 U/L
  Gpt (glutamic-pyruvic transaminase): 52.0 ± 17.6 U/L
  HCT (hematocrit): 46.1 ± 1.8%
  MCV (mean corpuscular volume): 50.9 ± 0.9 fL
  PLT: 916.3 ± 100.5 10 × 3/μl
  RBC: 9.1 ± 0.3 10^6/µL
  WBC: 2.0 ± 0.9 10 × 3/μl
[3]; high dose, after treatment (7 weeks)
  Body weight: 19.8 ± 1.1 g
[3]; high dose, before treatment
  Body weight: 19.6 ± 0.8 g
[3]; low dose, 7 weeks
  Creatine: 0.5 ± 0.0 mg/dL
  Got (glutamic-oxaloacetic transaminase): 119.5 ± 45.5 U/L
  Gpt (glutamic-pyruvic transaminase): 46.3 ± 16.7 U/L
  HCT (hematocrit): 43.5 ± 3.6%
  MCV (mean corpuscular volume): 56.2 ± 8.9 fL
  PLT: 1094.5 ± 124.9 10 × 3/μl
  RBC: 7.8 ± 1.4 10^6/µL
  WBC: 2.6 ± 1.2 10 × 3/μl
[3]; low dose, after treatment (7 weeks)
  Body weight: 19.4 ± 0.1 g
[3]; low dose, before treatment
  Body weight: 19.6 ± 0.6 g
[4]; high dose, 5 weeks
  BUN: 24.8 ± 9.0 mg/dL
  Creatine: 0.48 ± 0.10 mg/dL
  Got (glutamic-oxaloacetic transaminase): 630.7 ± 165.5 U/L
  Gpt (glutamic-pyruvic transaminase): 137.3 ± 55.8 U/L
  MCV (mean corpuscular volume): 47.7 ± 0.9 fL
  RBC: 7.3 ± 0.7 10^6/µL
  WBC: 2.7 ± 1.0 10 × 3/μl
[4]; high dose, after treatment (5 weeks)
  Body weight: 13.5 ± 0.6 g
[4]; high dose, before treatment
  Body weight: 11.5 ± 0.8 g
[4]; low dose, 5 weeks
  BUN: 23.9 ± 3.2 mg/dL
  Creatine: 0.43 ± 0.05 mg/dL
  Got (glutamic-oxaloacetic transaminase): 520.5 ± 169.9 U/L
  Gpt (glutamic-pyruvic transaminase): 130.0 ± 119.9 U/L
  MCV (mean corpuscular volume): 46.8 ± 0.8 fL
  RBC: 7.3 ± 0.6 10^6/µL
  WBC: 2.3 ± 0.7 10 × 3/μl
[4]; low dose, after treatment (5 weeks)
  Body weight: 13.6 ± 1.2 g
[4]; low dose, before treatment
  Body weight: 11.8 ± 0.4 g
[4]; LNCap-xenografted nude mice, 5 weeks
  body weight, control vs protoapigenone-treated group: no significant difference
[4]; LNCap-xenografted nude mice, intraperitoneal injection, 5 weeks
  impairment of hematopoiesis, liver function, or renal function: No significant impairment
LNCap cells [5]
  cell cycle distribution: arrests the LNCap cells at S and G2/M phases
LNCap
  ratio of TUNEL positive cells: increased along with time and the increased protoapigenone concentrations
